Several values for one entry are separate records, joined by “and”; a condition that tells them apart may be missing. Identical values can stand only once.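 Five compound concentrations were applied to cells in 96-well plates for 48 hours; endpoints were derived by simple linear interpolation of the resulting dose-response curve. GI50 marks 50% less growth. TGI marks complete inhibition of growth.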
Columns and labels:
Test in all cases: NCI-60 cell line screen, 48 h
SF-539 CNS = system: SF-539 CNS
LOX IMVI melanoma = system: LOX IMVI melanoma
U251 CNS = system: U251 CNS
NCI-H23 lung = system: NCI-H23 lung
EKVX NSCLC = system: EKVX NSCLC
A549 NSCLC = system: A549 NSCLC
TK-10 renal = system: TK-10 renal
OVCAR-3 ovarian = system: OVCAR-3 ovarian
SR leukemia = system: SR leukemia
MOLT-4 leukemia = system: MOLT-4 leukemia

Row | SMILES | GI50 (SF-539 CNS) | TGI (SF-539 CNS) | GI50 (LOX IMVI melanoma) | TGI (LOX IMVI melanoma) | GI50 (U251 CNS) | TGI (U251 CNS) | GI50 (NCI-H23 lung) | TGI (NCI-H23 lung) | GI50 (EKVX NSCLC) | TGI (EKVX NSCLC) | GI50 (A549 NSCLC) | TGI (A549 NSCLC) | GI50 (TK-10 renal) | TGI (TK-10 renal) | GI50 (OVCAR-3 ovarian) | TGI (OVCAR-3 ovarian) | GI50 (SR leukemia) | TGI (SR leukemia) | GI50 (MOLT-4 leukemia) | TGI (MOLT-4 leukemia)
1 | Cc1ccccc1C[P+](c1ccccc1)(c1ccccc1)c1ccccc1 | 2340 nM | > 100 µM | 1090 nM | > 100 µM | 1350 nM | > 100 µM | 1970 nM | > 100 µM | 873 nM | > 100 µM | 3.72 µM | > 100 µM | 1200 nM | 30.2 µM | 1000 nM | > 100 µM | 2020 nM | > 100 µM | 4900 nM | > 100 µM
2 | N/C(=N\N=C\c1ccc(O)c(O)c1)NO | – | > 100 µM | – | > 100 µM | – | > 100 µM | – | > 100 µM | – | > 100 µM | – | > 100 µM | – | > 100 µM | – | > 100 µM | – | > 100 µM | – | > 100 µM
3 | Cc1ccc2c(c1)-c1oc(=O)c(-c3cc4ccccc4oc3=O)cc1C(O)O2 (stereo not drawn) | 13300 nM | 26 µM | 17600 nM | 31.4 µM | 13200 nM | 26.6 µM | 23500 nM | 45.8 µM | 11800 nM | 25.7 µM | 29.9 µM | > 100 µM | 16300 nM | 34.9 µM | 22200 nM | 42.1 µM | 22900 nM | 82.8 µM | 27800 nM | 74.4 µM
4 | N#Cc1ccc(NC(=O)Nc2nc3ccc(OC(F)(F)F)cc3s2)cc1 | 2900 nM | 10.1 µM | 1470 nM | 4.67 µM | 1430 nM | 11.4 µM | 581 nM | 6.02 µM | 1360 nM | 14.7 µM | 1.21 µM | 11.1 µM | 1220 nM | 7.03 µM | 577 nM | 14.3 µM | 736 nM | 5.77 µM | 1880 nM | 13.4 µM
5 | Clc1ccc(COC(Cn2ccnc2)c2ccc(Cl)cc2Cl)c(Cl)c1 (stereo not drawn) | – | 27.8 µM and 32.7 µM and 27.7 µM | 3510 nM | 16.2 µM and 34.3 µM and 24.8 µM | 3570 nM | 16.1 µM and 25.8 µM and 23.6 µM | 3030 nM | 14.6 µM and 25.8 µM and 22.4 µM | 5640 nM | 18.4 µM and 29.1 µM and 23.1 µM | 3.87 µM | 15.5 µM and 23.8 µM and 23.2 µM | 10700 nM | 22.9 µM and 29.6 µM | 5350 nM | 17.1 µM and 25 µM and 21.5 µM | 4340 nM and 2470 nM and 5920 nM | 18.3 µM and 12.3 µM and 22.4 µM | – | 15.1 µM and 22.2 µM and 13.9 µM
6 | COC1C(O)CC(OC2CC(OC3CC(O[C@@H]4C(=O)c5c(cc6cc(OC7CC(OC8CC(O)C(O)C(C)O8)C(O)C(C)O7)c(C)c(O)c6c5O)CC4[C@H](OC)[C@@H](O)C(C)=O)OC(C)C3O)OC(C)C2O)OC1C (stereo partly drawn) | 9.02 nM | 0.463 µM | 6.7 nM | 0.0325 µM | 12.5 nM | > 33.3 µM | 3.33 nM | 1.12 µM | 14 nM | > 33.3 µM | 0.00797 µM | > 33.3 µM | 25.7 nM | > 33.3 µM | 16.6 nM | 0.597 µM | 6.24 nM | 1.65 µM | 7.49 nM | 0.34 µM
7 | COc1ccc(-c2cc(-c3ccc(Cl)cc3)nc(SCCCCCCC(=O)NO)n2)cc1 | 1630 nM | 6.44 µM | 1220 nM | 3.05 µM | 1370 nM | 5.9 µM | 1560 nM | 7.81 µM | 2610 nM | 22.3 µM | 1.62 µM | 10.7 µM | 2120 nM | > 50 µM | 1490 nM | 6.85 µM | 590 nM | 3.66 µM | 790 nM | 2.93 µM
8 | CCOC(=O)C(=O)C(/C(=N/N(C)C)C(=O)Nc1ccc(C)cc1C)c1nc2ccccc2[nH]c1=O (stereo not drawn) | – | > 100 µM | – | > 100 µM | – | > 100 µM | – | > 100 µM | – | > 100 µM | – | > 100 µM | – | > 100 µM | – | > 100 µM | – | > 100 µM | – | > 100 µM
9 | Cc1cc(C)c(O)c(CNCCCNCc2cc(C)cc(C)c2O)c1 | 1590 nM | 3.11 µM | 1520 nM | 2.88 µM | 1950 nM | 3.89 µM | 7460 nM | 21.2 µM | 5040 nM | 20.2 µM | 11 µM | 24.6 µM | 6160 nM | 20.6 µM | 3820 nM | 15 µM | 2060 nM | 6 µM | 3140 nM | 10.2 µM
10 | C/C=C(\C)C(=O)N1c2ccccc2CC1c1c(C)[nH]c2ccccc12 (stereo not drawn) | – | > 100 µM | – | > 100 µM | – | > 100 µM | – | > 100 µM | – | > 100 µM | – | > 100 µM | – | > 100 µM | – | > 100 µM | – | > 100 µM | – | > 100 µM
11 | Fc1ccc2c(c1)cc1ccc3cccc4ccc2c1c34 | – | > 100 µM | – | > 100 µM | – | > 100 µM | – | > 100 µM | – | > 100 µM | – | > 100 µM | – | > 100 µM | – | > 100 µM | – | > 100 µM | – | > 100 µM
